Measurements published in BindingDB's records for PubMed 6248635 (Stanford University, 1980).
“And” between values parts separate entries of the source, which are not always exact repeats. Identical values can stand only once.

What was measured:
Opioid receptor delta 1 = Opioid receptor delta 1 (Bos taurus, UniProt F1N083)
Beta-arrestin-1 = Beta-arrestin-1 (Oryctolagus cuniculus, UniProt Q95223)
[1] = target: Delta-type opioid receptor (Mus musculus, UniProt P32300)
Chain of Delta-type opioid receptor (P32300 whole entry): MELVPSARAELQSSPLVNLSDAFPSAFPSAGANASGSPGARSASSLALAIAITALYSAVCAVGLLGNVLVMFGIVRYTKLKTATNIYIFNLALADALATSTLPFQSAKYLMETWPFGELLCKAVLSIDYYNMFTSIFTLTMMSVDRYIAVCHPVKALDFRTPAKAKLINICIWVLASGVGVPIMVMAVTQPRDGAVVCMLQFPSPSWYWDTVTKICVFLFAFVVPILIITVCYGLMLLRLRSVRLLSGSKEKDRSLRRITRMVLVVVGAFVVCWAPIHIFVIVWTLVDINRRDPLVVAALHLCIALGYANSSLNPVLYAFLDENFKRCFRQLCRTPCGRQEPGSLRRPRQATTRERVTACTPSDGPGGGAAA

Chain of Beta-arrestin-1 (Q95223 whole entry): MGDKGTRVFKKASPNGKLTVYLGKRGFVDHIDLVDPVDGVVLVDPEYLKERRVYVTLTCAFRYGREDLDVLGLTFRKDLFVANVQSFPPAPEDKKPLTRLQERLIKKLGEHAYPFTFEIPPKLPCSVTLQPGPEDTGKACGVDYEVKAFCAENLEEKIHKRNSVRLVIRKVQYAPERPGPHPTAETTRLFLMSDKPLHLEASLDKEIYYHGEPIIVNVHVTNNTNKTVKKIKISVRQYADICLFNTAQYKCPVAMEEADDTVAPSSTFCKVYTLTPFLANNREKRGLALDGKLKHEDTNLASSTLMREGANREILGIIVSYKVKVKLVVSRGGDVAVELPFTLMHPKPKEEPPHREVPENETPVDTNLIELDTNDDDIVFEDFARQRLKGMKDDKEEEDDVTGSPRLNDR
Chain of Opioid receptor delta 1 (F1N083 whole entry): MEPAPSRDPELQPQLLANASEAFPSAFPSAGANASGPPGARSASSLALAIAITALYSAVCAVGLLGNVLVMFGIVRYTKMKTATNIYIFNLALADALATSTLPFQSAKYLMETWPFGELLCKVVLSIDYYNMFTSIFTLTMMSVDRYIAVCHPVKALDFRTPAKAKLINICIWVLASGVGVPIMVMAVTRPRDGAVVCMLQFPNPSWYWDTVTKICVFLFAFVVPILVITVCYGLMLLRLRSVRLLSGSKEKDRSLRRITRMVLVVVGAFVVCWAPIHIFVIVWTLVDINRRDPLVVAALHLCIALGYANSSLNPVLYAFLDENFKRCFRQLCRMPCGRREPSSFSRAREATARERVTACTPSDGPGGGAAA

Compound	Ki (Opioid receptor delta 1)	Ki (Beta-arrestin-1) [nM]	Ki [1] [nM]
CC(C)C[C@H](NC(=O)[C@H](Cc1ccccc1)NC(=O)CNC(=O)[C@@H](C)NC(=O)[C@@H](N)Cc1ccc(O)cc1)C(=O)O [DALLE]	1.8 nM and 7.4 nM	3.6	
CN1CC[C@]23c4c5ccc(O)c4O[C@H]2[C@@H](O)CCC3[C@H]1C5 (stereo partly drawn) [DIHYDROMORPHINE]	38.1 nM and 35.6 nM		127
C=CCN1CC[C@]23c4c5ccc(O)c4O[C@H]2C(=O)CC[C@@]3(O)[C@H]1C5 [[17-(2,3-3H-2-propenyl)]-4,5a-epoxy-3,14-dihydroxymorphinan-6-one]		67.4	
CC(C)C[C@@H](NC(=O)[C@H](Cc1ccccc1)NC(=O)CNC(=O)[C@@H](C)NC(=O)[C@@H](N)Cc1ccc(O)cc1)C(=O)O [[D-Ala2-D-Leu5]enkephalin]	1.8 nM and 9.7 nM		
H-YGGFMTSEKSQTPLVTLFKNAIVKNAHKKGQ-OH [Beta-Endorphin]	14 nM and 58.1 nM	21	
